Assay results from EP4722219A1 (Gan & Lee Pharmaceuticals Co., Ltd., priority 2023, dated 2024).

Target: T1, AR protein (Homo sapiens, UniProt P10275)
T1 construct: host or cells: VCaP
T1 sequence (P10275 1-920): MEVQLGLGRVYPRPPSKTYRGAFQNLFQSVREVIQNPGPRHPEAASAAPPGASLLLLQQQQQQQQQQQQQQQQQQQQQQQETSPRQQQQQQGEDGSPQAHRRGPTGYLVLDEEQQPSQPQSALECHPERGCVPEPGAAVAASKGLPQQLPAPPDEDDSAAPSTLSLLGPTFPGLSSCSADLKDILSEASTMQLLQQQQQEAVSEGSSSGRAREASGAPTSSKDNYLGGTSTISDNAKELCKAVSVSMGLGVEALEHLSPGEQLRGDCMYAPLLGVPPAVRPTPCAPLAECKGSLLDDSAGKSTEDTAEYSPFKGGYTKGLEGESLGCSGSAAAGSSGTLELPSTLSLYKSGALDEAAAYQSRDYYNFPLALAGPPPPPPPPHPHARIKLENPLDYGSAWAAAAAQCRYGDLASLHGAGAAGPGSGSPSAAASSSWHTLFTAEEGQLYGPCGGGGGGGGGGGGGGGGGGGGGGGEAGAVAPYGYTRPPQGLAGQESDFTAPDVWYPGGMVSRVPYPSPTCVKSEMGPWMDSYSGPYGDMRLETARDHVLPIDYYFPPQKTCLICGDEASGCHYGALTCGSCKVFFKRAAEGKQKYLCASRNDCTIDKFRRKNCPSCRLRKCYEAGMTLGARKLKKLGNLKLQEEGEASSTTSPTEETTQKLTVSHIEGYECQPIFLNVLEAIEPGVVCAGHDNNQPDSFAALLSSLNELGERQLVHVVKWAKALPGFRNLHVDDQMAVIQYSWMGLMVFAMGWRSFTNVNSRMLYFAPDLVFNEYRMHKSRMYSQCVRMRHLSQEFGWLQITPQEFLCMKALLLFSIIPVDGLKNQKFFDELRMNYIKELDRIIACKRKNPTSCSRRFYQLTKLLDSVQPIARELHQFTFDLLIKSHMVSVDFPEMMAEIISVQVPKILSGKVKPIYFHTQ
Assay: AR protein degradation in VCaP cells (Western blot)
Format: cell-based
Details: 8h
Procedure, shortened: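 AR-positive VCaP human prostate cancer cells grown in DMEM with 10% FBS were plated in six-well plates at 3×10^5 cells/well and incubated overnight. Compounds were then added at 1 µL/well alongside a solvent control and incubated for 8h. Lysates in RIPA buffer with protease inhibitor were quantified by BCA and run by SDS-PAGE. AR was detected by Western blot, and degradation was calculated from band grayscale normalized to GAPDH.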

Compound	Degradation rate of AR protein in VCaP cells (0.5 nM) [%]	Degradation rate of AR protein in VCaP cells (5 nM) [%]	AR protein degradation rate at fixed concentration (%) at 0.0005 µM (0.5 nM) [%]	AR protein degradation rate at fixed concentration (%) at 0.005 µM (5 nM) [%]
COc1cc(O[C@H]2C(C)(C)[C@H](NC(=O)c3ccc(N4CCC(C)(CN5CCC6(CC5)COc5c6ccc(C(=O)N[C@H]6CCC(=O)NC6=O)c5F)CC4)cc3)C2(C)C)ccc1C#N [A-P-85, 1'-((1-(4-(((1r,3r)-3-(4-cyano-3-methoxyphenoxy)-2,2,4,4-tetramethylcyclobutyl)carbamoyl)phenyl)-4-methylpiperidin-4-yl)methyl)-N-((S)-2,6-dioxopiperidin-3-yl)-7-fluoro-2H-spiro[benzofuran-3,4'-piperidin]-6-carboxamide]	18	34	–	–
COc1cc(O[C@H]2C(C)(C)[C@H](NC(=O)c3ccc(N4CCC(C)(CN5CCC6(CCc7cc(C(=O)N[C@H]8CCC(=O)NC8=O)c(F)cc7O6)CC5)CC4)nn3)C2(C)C)ccc1C#N [A-P-48, 1'-((1-(6-(((1R,3R)-3-(4-cyano-3-methoxyphenoxy)-2,2,4,4-tetramethylcyclobutyl)carbamoyl)pyridazin-3-yl)-4-methylpiperidin-4-yl)methyl)-N-((S)-2,6-dioxopiperidin-3-yl)-7-fluorospiro[chroman-2,4'-piperidin]-6-carboxamide]	-23	-1	–	–
COc1cc(O[C@H]2C(C)(C)[C@H](NC(=O)c3ccc(N4CCC(CN5CCN(c6ccc(C(=O)N[C@H]7CCC(=O)NC7=O)c(F)c6)CC5)CC4)cc3)C2(C)C)ccc1C#N [ARV-766, reference compound]	9	80	–	–
CC1(C)[C@H](NC(=O)c2ccc(N3CCC(CN4CCC5(CCc6cc(C(=O)N[C@H]7CCC(=O)NC7=O)c(F)cc6O5)CC4)CC3)nc2)C(C)(C)[C@H]1Oc1ccc(C#N)c(Cl)c1 [A-P-50, 1'-((1-(5-(((1R,3R)-3-(3-chloro-4-cyanophenoxy)-2,2,4,4-tetramethylcyclobutyl)carbamoyl)pyridin-2-yl)piperidin-4-yl)methyl)-N-((S)-2,6-dioxopiperidin-3-yl)-7-fluorospiro[chroman-2,4'-piperidin]-6-carboxamide]	84	87	–	–
C[C@H]1CC2(CCN(c3ccc(N4CCC(CN5CCC6(CC5)COc5ccc7c(c56)n(C)c(=O)n7C5CCC(=O)NC5=O)CC4)cc3)CC2)CN1c1ccc(C#N)c(Cl)c1 (stereo partly shown) [A-P-26, 2-chloro-4-((3 S)-8-(4-(4-((3-((2,6-dioxopiperidin-3-yl))-1-methyl-2-oxo-2,3-dihydro-1H,7H-spiro[benzofuro[4,5-d]imidazole-8,4'-piperidin]-1'-yl)methyl)piperidin-1-yl)phenyl)-3-methyl-2,8-diazaspiro[4.5]decan-2-yl)benzonitrile]	–	–	-43	18
COc1cc(O[C@H]2C(C)(C)[C@H](NC(=O)c3ccc(N4CCC(F)(CN5CC6(CCC7(CC6)COc6c7ccc7c6CN(C6CCC(=O)NC6=O)C7=O)C5)CC4)cc3)C2(C)C)ccc1C#N (relative stereo) [A-P-5]	38	73	–	–
CC1(C)[C@H](NC(=O)c2ccc(N3CCC(CN4CCC5(CCc6cc(C(=O)N[C@H]7CCC(=O)NC7=O)c(F)cc6O5)CC4)CC3)nc2)C(C)(C)[C@H]1Oc1ccc(C#N)c(C(F)(F)F)c1 [A-P-45, 1'-((1-(5-(((1R,3R)-3-(4-cyano-3-(trifluoromethyl)phenoxy)-2,2,4,4-tetramethylcyclobutyl)carbamoyl)pyridin-2-yl)piperidin-4-yl)methyl)-N-((S)-2,6-dioxopiperidin-3-yl)-7-fluorospiro[chroman-2,4'-piperidin]-6-carboxamide]	44	77	–	–
COc1cc(O[C@H]2C(C)(C)[C@H](NC(=O)c3ccc(N4CCC(CN5CCC6(CCc7cc(C(=O)N[C@H]8CCC(=O)NC8=O)c(F)cc7O6)CC5)CC4)nc3)C2(C)C)ccc1C#N [A-P-33, 1'-((1-(5-(((1R,3R)-3-(4-cyano-3-methoxyphenoxy)-2,2,4,4-tetramethylcyclobutyl)carbamoyl)pyridin-2-yl)piperidin-4-yl)methyl)-N-((S)-2,6-dioxopiperidin-3-yl)-7-fluorospiro[chroman-2,4'-piperidin]-6-carboxamide]	56	84	–	–
N#Cc1ccc(O[C@H]2CC[C@H](NC(=O)c3ccc(N4CCC(N5CCC6(CC5)CCC5(CC6)COc6c5ccc5c6CN(C6CCC(=O)NC6=O)C5=O)CC4)nn3)CC2)cc1Cl (relative stereo) [A-P-7, N-((1r,4r)-4-(3-chloro-4-cyanophenoxy)cyclohexy 1)-6-(4-(7-(2,6-dioxopiperidin-3-yl)-6-oxo-7,8-dihydro-2H,6H-dipyridyl[2,3-e]isoindole-3,1'-cyclohexane-4',4'"-piperidin]-1"-yl)pyridazine-3-carboxamide]	79	89	–	–
COc1cc(O[C@H]2C(C)(C)[C@H](NC(=O)c3ccc(N4CCC(F)(CN5CCC6(CCc7cc(C(=O)N[C@H]8CCC(=O)NC8=O)c(F)cc7O6)CC5)CC4)cc3)C2(C)C)ccc1C#N [A-P-52, 1'-((1-(4-(((1r,3r)-3-(4-cyano-3-methoxyphenoxy)-2,2,4,4-tetramethylcyclobutyl)carbamoyl)phenyl)-4-fluoropiperidin-4-yl)methyl)-N-((S)-2,6-dioxopiperidin-3-yl)-7-fluorospiro[chroman-2,4'-piperidin]-6-carboxamide]	-1	14	–	–
C[C@H]1CC2(CCN(c3ccc(C(=O)N4CCC(CN5CCN6c7ccc(C(=O)N[C@H]8CCC(=O)NC8=O)cc7OC[C@@H]6C5)CC4)cc3)CC2)CN1c1ccc(C#N)c(Cl)c1 [A-P-69]	-9	18	–	–
COc1cc(O[C@H]2C(C)(C)[C@H](NC(=O)c3ccc(N4CCC(N5CCC6(CC5)COc5c6ccc6c5n(C)c(=O)n6C5CCC(=O)NC5=O)CC4)cc3)C2(C)C)ccc1C#N (stereo partly shown) [A-P-29]	–	–	70	68
COc1cc(O[C@H]2C(C)(C)[C@H](NC(=O)c3ccc(N4CCC(C)(CN5CCC6(CCc7cc(C(=O)N[C@H]8CCC(=O)NC8=O)c(F)cc7O6)CC5)CC4)nc3)C2(C)C)ccc1C#N [A-P-49, 1'-((1-(5-(((1R,3R)-3-(4-cyano-3-methoxyphenoxy)-2,2,4,4-tetramethylcyclobutyl)carbamoyl)pyridin-2-yl)-4-methylpiperidin-4-yl)methyl)-N-((S)-2,6-dioxopiperidin-3-yl)-7-fluorospiro[chroman-2,4'-piperidin]-6-carboxamide]	-15	45	–	–
COc1cc(O[C@H]2CC[C@H](NC(=O)c3ccc(N4CCC(N5CCC6(CC5)COc5cc7c(cc56)n(C)c(=O)n7C5CCC(=O)NC5=O)CC4)nn3)CC2)ccc1C#N (stereo partly shown) [A-P-18, N-((1r,4r)-4-(4-cyano-3-methoxyphenoxy)cyclohexyl)-6-(4-(3-(2,6-dioxopyridyl-3-yl)-1-methyl-2-oxo-2,3-dihydro-1H,6H-spiro[benzofuro[5,6-d]imidazole-7,4'-piperidin]-1'-yl)piperidin-1-yl)pyridazine-3-carboxamide]	–	–	76	73
